Assay results taken from US7514068B2, “Biphenyl-pyrazolecarboxamide compounds” (Concert Pharmaceuticals Inc., priority 2005, dated 2009).
Read-outs that look alike come from different tables or passages of the source.

Experiments:
[1] = RIO-North American trial, cited from earlier work
[2] = RIO-North American Phase III clinical trial, adverse-event associated discontinuations; assay type: in vivo, human; details: 20 mg dose
Source text: In reports of these clinical trials Compound 1 was described as having a good safety profile with relatively low increases in serious adverse events across the different dose groups tested. However, it is clearly less well tolerated in higher doses, with the more common side effects including depression, anxiety, and irritability, and in some but not all studies, significant amounts of nausea. Even in a highly motivated Phase III clinical trial population, a considerable number of dose-dependent discontinuations occurred.

[3] = rat liver microsome assays; cited from earlier work
animal models = details: cited from earlier work
rats = details: cited from earlier work
[4] = tested on: wide range of other neurological receptors; details: in vitro receptor binding studies; cited from earlier work
CB1 vs. CB2 receptor = details: in vitro receptor binding studies; cited from earlier work

Structure (SMILES) | first year adverse-event associated discontinuations ([1]; 5 mg dose) [%] | first year adverse-event associated discontinuations ([1]; 20 mg dose) [%] | increase of adverse-event associated discontinuations versus placebo [2] [%] | sites of metabolism [3] | duration of action compared with Compound 1 (animal models) | in vivo effects of cannabinoid agonists (hypothermia, ring immobility, increased tail flick latency) (rats) | affinity for a wide range of other neurological receptors [4] | selectivity for the CB1 vs. CB2 receptor (CB1 vs. CB2 receptor)
Cc1c(C(=O)NN2CCCCC2)nn(-c2ccc(Cl)cc2Cl)c1-c1ccc(Cl)cc1 [Compound 1, N-(piperidin-1-yl)-5-(4-chlorophenyl)-1-(2,4-dichlorophenyl)-4-methyl-1H-pyrazole-3-carboxamide] | 9.4 | 12.8 | 77 | hydroxylation only on the pyrazole 3-substituent | – | – | – | –
CCc1c(C(=O)NN2CCCCC2)nn(-c2ccc(Cl)cc2Cl)c1-c1ccc(Br)cc1 [Compound 1A, 5-(4-bromophenyl)-1-(2,4-dichlorophenyl)-4-ethyl-N-(1-piperidinyl)-1H-pyrazole-3-carboxamide] | – | – | – | – | longer | reverse | little affinity | highly selective
